# Data published in patent US20180043017A1, “PHARMACEUTICAL COMPOSITIONS COMPRISING 0.5 MG DOSE OF SYNTHETIC HUMAN PEPTIDES FOR TREATING SYSTEMIC LUPUS ERYTHEMATOSUS” (XTL Biopharmaceuticals Ltd., priority 2016, published 2018).
# Where two headings read alike, the source gives them in different places.
# What was measured:
# [1] = system: mice afflicted with spontaneous or experimental SLE; settings: mouse, in vivo; cited from earlier work
# SLE patients [2] = settings: cited from earlier work
# [3] = system: peripheral blood lymphocytes (PBL) of SLE patients; settings: cited from earlier work
# SLE patients [4] = settings: cited from earlier work; for incidence of adverse events (AEs): placebo 75%
# SLE patients [5] = settings: in vivo
# Description: (§1) The PRELUDE Study was a phase 2, multinational, multicenter, randomized, double-blind, placebo-controlled, multiple-dose, parallel group study to assess the efficacy, tolerability and safety of three doses of subcutaneously injected Edratide in SLE patients.
# (§2) The total study treatment duration was 26 weeks. Scheduled visits were performed at screening, baseline and at weeks 4, 8, 12, 16, 20, 24, and 26 (termination). […] Non-compliance with the tapering down scheme was not regarded as a protocol violation. During the entire course of the study it was allowed to increase the steroid prednisolone dose to up to 60 mg. Use of intravascular/intramuscular steroid was considered a protocol violation. […] Edratide and CAPTISOL® pharmacokinetic (PK) profiles were characterized in a small group of patients. PK assessment of CAPTISOL® for all four treatment groups was conducted following the first dose and Weeks 12 and 26 doses. Disease and drug related immunology parameters were tested at baseline and at several time points thereafter.
# (§3) The co-primary end-points presented in their hierarchical order below were: • Change from baseline to last observed value (LOV) in SLEDAI 2K score (Landmark Analysis.) • Adjusted Mean SLEDAI 2K (AMS). AMS represents the time weighted average of disease activity as measured by SLEDAI 2K score [area under the curve (AUC) of SLEDAI 2K].
# (§4) Secondary End-Points: • BILAG proportion of responders. BILAG responders were defined as: • a. Non Responder (NR)—same BILAG score in Last Observed Value (LOV) as in baseline in all systems or new A or B in at least one system compared to baseline (other systems may improve or deteriorate). • b. […] Change from baseline to LOV • SF-36 (QoL) Physical component Score—Change from Baseline to LOV • Time Weighted Average (TWA) on cumulative steroids dose with p.o. administration.
# (§5) Exploratory End-Points: • Primary end-point sensitivity analysis to steroid increase (excluding the observations following steroid increase) • Proportions of Zero SLEDAI Score at LOV • Time to Zero SLEDAI Score • BILAG Total Score—Change from Baseline to LOV
# (§6) Flares Analysis: • Time to medicinal flare • Time to new BILAG A or at least two new B's • Time to new BILAG A or at least two new B's (excluding persistent activity) • Steroid dose (PO)—Change from baseline to LOV • PGA—Physician's Global Assessment
# SLE patients [6] = assay: PRELUDE phase 2 study, three doses of subcutaneously injected Edratide, 26 weeks; settings: for AE incidence: placebo 79.3%; for early withdrawal due to AE: placebo 2.3%
# Description: as §1, §2, §3, §4, §5, §6
compound,measurement,setting,value
"CC[C@H](C)[C@H](NC(=O)[C@H](Cc1c[nH]c2ccccc12)NC(=O)[C@H](CO)NC(=O)[C@H](Cc1c[nH]c2ccccc12)NC(=O)[C@H](Cc1ccc(O)cc1)NC(=O)[C@H](Cc1ccc(O)cc1)NC(=O)CN)C(=O)C[C@@H](CCCNC(=N)N)C(=O)N[C@@H](CCC(N)=O)C(=O)N1CCC[C@H]1C(=O)N1CCC[C@H]1C(=O)NCC(=O)N[C@@H](CCCCN)C(=O)NCC(=O)N[C@@H](CCC(=O)O)C(=O)N[C@@H](CCC(=O)O)C(=O)N[C@@H](Cc1c[nH]c2ccccc12)C(=O)N[C@H](C(=O)NCC(=O)O)[C@@H](C)CC (stereo in doubt) [Edratide, H-Gly-Tyr-Tyr-Trp-Ser-Trp-Ile-Arg-Gln-Pro-Pro-Gly-Lys-Gly-Glu-Glu-Trp-Ile-Gly-OH]",disease manifestations of mice afflicted with spontaneous or experimental SLE,[1],ameliorate disease manifestations
same,subjects with increase in total SLEDAI-2K score of 0-3 points,SLE patients [2]; 0.5 mg group,Two
same,subjects with increase in total SLEDAI-2K score of 0-3 points,SLE patients [2]; 2.5 mg group,2 subjects
same,overall incidence of AEs between all treatment groups,"SLE patients [2]; 0.5, 1 or 2.5 mg sc twice weekly for 4 weeks vs placebo",no prominent difference
same,severity of injection site reactions,"SLE patients [2]; all injection site reactions, majority resolved on day of injection",mild
same,subjects reporting AEs during 8-week follow-up period (off-drug),SLE patients [2]; all treatment groups,Approximately 50%
same,"adjusted mean SLEDAI (AMS) score change, baseline to termination visit","SLE patients [2]; all treatment groups, decreased (improved)",−0.1 to −1.5 points
same,trend in mean group total BILAG score,SLE patients [2]; any treatment group,No trend
same,SAE throughout the study,SLE patients [2]; in vivo,No SAE was reported
same,"incidence of AEs during 8-week follow-up period (off-drug), active groups vs placebo",SLE patients [2]; in vivo,no prominent difference
same,proliferative response of PBL of SLE patients to the human anti-DNA 16/6Id mAB,[3],inhibit the proliferative response
same,increase of total SLEDAI-2K score in one subject,"SLE patients [4]; 0.5 mg group, Week 4 after dosing, not confirmed as lupus flare",2 to 10 points
same,change of total SLEDAI-2K score,"SLE patients [4]; any subject during the study, except one subject in the 0.5 mg group",No noteworthy change
same,incidence of adverse events (AEs),"SLE patients [4]; single sc injection 0.5 mg, % of the subjects",33%
same,incidence of adverse events (AEs),SLE patients [4]; single sc injection 1 mg,67%
same,incidence of adverse events (AEs),SLE patients [4]; single sc injection 2.5 mg,80%
same,subjects with herpes simplex,SLE patients [5],8 subjects
same,subjects with herpes viral infections,SLE patients [5],11 subjects
same,subjects with herpes zoster,SLE patients [5],3 subjects
same,"Serious Adverse Events (SAEs), number of subjects",SLE patients [6]; 0.5 mg,6 subjects
same,change in SF-36 mental score compared to placebo,SLE patients [6]; 0.5 mg,slightly better
same,change in SF-36 physical score compared to placebo,SLE patients [6]; 0.5 mg,opposite trend
same,"early withdrawal due to AE, number of subjects",SLE patients [6]; 0.5 mg,5 subjects
same,"post hoc analysis on BILAG responders, system improved",SLE patients [6]; 0.5 mg,improvement mainly in the cutaneous system
same,subjects who prematurely terminated the study,SLE patients [6]; 0.5 mg (84 randomized),Thirteen
same,deaths during the study,SLE patients [6]; 0.5 mg group,One
same,relation of death to study drug as classified by investigators,"SLE patients [6]; 0.5 mg group, most probably septic shock",not related to the study drug
same,AE incidence,SLE patients [6]; 0.5 mg weekly,82.1%
same,BILAG substantial responders,"SLE patients [6]; 0.5 mg, ITT, LOV vs baseline, placebo 22%, p=0.03",36%
same,subjects with medicinal flare,"SLE patients [6]; 0.5 mg, ITT, post hoc, placebo 29%, p=0.039",17%
same,BILAG substantial response odds ratio (OR) vs placebo,"SLE patients [6]; 0.5 mg, ITT, p=0.03",2.09
same,medicinal flare OR vs placebo,"SLE patients [6]; 0.5 mg, ITT, p=0.039",0.43
same,BILAG substantial responders,"SLE patients [6]; 0.5 mg, no steroids at baseline, placebo 13%, p=0.05",54%
same,early withdrawal due to AE,SLE patients [6]; 0.5 mg,6.0%
same,Serious Adverse Events (SAEs) incidence,"SLE patients [6]; 0.5 mg, placebo 10.3%",7.1%
same,"Serious Adverse Events (SAEs), number of subjects",SLE patients [6]; 1.0 mg,10 subjects
same,"early withdrawal due to AE, number of subjects",SLE patients [6]; 1.0 mg,3 subjects
same,subjects who prematurely terminated the study,SLE patients [6]; 1.0 mg (87 randomized),13 subjects
same,subjects with zoster,SLE patients [6]; 1 mg group,2 subjects
same,AE incidence,SLE patients [6]; 1 mg weekly,77%
same,proportion of BILAG substantial responders compared to placebo,"SLE patients [6]; 1 mg, lesser extent than 0.5 mg",trend toward increasing the proportion of substantial responders
same,BILAG substantial response OR vs placebo,"SLE patients [6]; 1 mg, p=0.07 without correction for multiple comparison",1.85
same,early withdrawal due to AE,SLE patients [6]; 1.0 mg,3.4%
same,Serious Adverse Events (SAEs) incidence,"SLE patients [6]; 1.0 mg, placebo 10.3%",11.5%
same,"Serious Adverse Events (SAEs), number of subjects",SLE patients [6]; 2.5 mg,8 subjects
same,"early withdrawal due to AE, number of subjects",SLE patients [6]; 2.5 mg,3 subjects
same,subjects who prematurely terminated the study,SLE patients [6]; 2.5 mg (82 randomized),11 subjects
same,AE incidence,SLE patients [6]; 2.5 mg weekly,75.6%
same,early withdrawal due to AE,SLE patients [6]; 2.5 mg,3.7%
same,Serious Adverse Events (SAEs) incidence,"SLE patients [6]; 2.5 mg, placebo 10.3%",9.8%
same,cSRI positive responders,"SLE patients [6]; ITT (FIG. 4), placebo 20%, p=0.058",34%
same,safety signal from AEs analysis and additional safety data,"SLE patients [6]; all Edratide doses, no clear dose response",no significant safety signal
same,"co-primary endpoints (change in SLEDAI 2K score baseline to LOV; AMS), active groups vs placebo",SLE patients [6]; any of the active treatment groups,no differences
same,"SF-36 mental or physical scores, differences between treatment groups",SLE patients [6]; in vivo,No clinically or statistically significant differences
same,"cumulative change in steroid dose throughout the study, differences between treatment groups",SLE patients [6]; in vivo,No clinically or statistically significant differences
same,"early terminations due to AEs, Edratide vs placebo",SLE patients [6]; in vivo,more often
same,SAE incidence,"SLE patients [6]; pooled Edratide group, placebo 10.3%",9.5%
same,BILAG substantial response OR vs placebo,"SLE patients [6]; prednisolone dose <20 mg at baseline, p=0.007",2.75
same,BILAG substantial responders,"SLE patients [6]; prednisolone dose <20 mg at baseline, placebo 19%, p=0.007 (FIG. 2B)",40%
same,mean reduction from baseline SLEDAI-2K score,SLE patients [6]; regardless of treatment,about 35%
same,BILAG substantial responders,"SLE patients [6]; seropositive patients (anti-DNA>30 IU), placebo 26% (FIG. 2C)",46%
same,BILAG non-responders,"SLE patients [6]; seropositive patients (anti-DNA>30 IU), placebo 68%, p=0.05",42%
